In patent publication US10106515B2, “1-(cyclopent-2-en-1-yl)-3-(2-hydroxy-3-(arylsulfonyl)phenyl)urea derivatives as CXCR2 inhibitors” (GLAXOSMITHKLINE INTELLECTUAL PROPERTY DEVELOPMENT LIMITED, priority 2014, dated 2018):
Counter-ions that a name gives are not always drawn.

Target: T1, recombinant human CXCR2 (Homo sapiens, UniProt P25025)
T1 construct: TEV protease site; Gal4-VP16 transcription factor
T1 sequence (P25025 1-360): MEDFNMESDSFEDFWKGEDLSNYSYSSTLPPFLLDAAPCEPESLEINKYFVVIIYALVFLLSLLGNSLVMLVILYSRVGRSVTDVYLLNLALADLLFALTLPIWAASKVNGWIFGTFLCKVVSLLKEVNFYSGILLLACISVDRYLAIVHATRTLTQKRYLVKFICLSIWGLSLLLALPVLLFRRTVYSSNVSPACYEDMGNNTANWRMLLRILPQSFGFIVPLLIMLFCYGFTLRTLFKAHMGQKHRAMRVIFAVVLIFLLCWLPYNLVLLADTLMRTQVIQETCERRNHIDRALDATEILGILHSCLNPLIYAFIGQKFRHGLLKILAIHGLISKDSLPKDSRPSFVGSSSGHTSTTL
Test: CXCR2 Tango assay
Format: cell-based
Settings: mean pIC50 of multiple test results; stimulated with 80 nM hCXCL1; reporter gene blue/green emission ratio; read-out: pIC50 (CXCR2 Tango assay) (converted)
Text: The assay measures ligand-induced activation of the receptor CXCR2 in a stable cell line containing the recombinant human CXCR2 linked to a TEV protease site and a Gal4-VP16 transcription factor (Invitrogen). Ligand binding to the receptor results in the recruitment of arrestin proteins (tagged with protease) to the receptor and triggers the release of a tethered transcription factor. The transcription factor enters the nucleus and activates the transcription of the reporter gene. The ability of a compound to inhibit CXCR2 activation is indirectly assessed by measuring the reporter gene activity.
A vial of cryopreserved cells was removed from liquid nitrogen and rapidly thawed in a water bath at 37° C. with gentle agitation. The contents of the vial were transferred drop-wise into Thawing Medium in a sterile 15 ml conical tube and then centrifuged at 1000 rpm for 4-5 min. Then the cell pellets were resuspended in Assay Medium at a density of ˜200,000 cells/ml. All test compounds were dissolved in DMSO at a concentration of 10 mM and were prepared in 100% DMSO to provide 10 point dose response curves. A reference CXCR2 antagonist was added to wells in row 2, columns 1-5 & 7-11. Exemplified compounds 1-4, 7, 8-10, 13-22, 24-26, 28-30, 32, 33, 36, 37, 40, 42-44. 95-110, 115-118, 120, 121, 125, 126, 129-134, 137, 138, 140, 142, 147-149, 153-157, 159-162, 163-166, 168, 170, 172, 174-180 and 202 were tested using the CXCR2 antagonist sodium 3-chloro-6-(3-(2,3-dichlorophenyl)ureido)-2-sulfamoylphenolate as reference compound (Reference Compound 1) (published International patent application WO2002/079122). […] Test compounds were added to wells in row 2, columns 13-17 & 19-23 and rows 3-15, columns 1-5 & 7-11/13-17 & 19-23 (columns 6 and 18 as positive controls and un-stimulated controls respectively; columns 12 and 24 as cell-free control). Compounds in solution were added to the assay plate (Greiner 781090) using an Echo (Labcyte) concentration-response program (50 nl/well). The cell-free, un-stimulated and positive controls were loaded with 50 nl/well pure DMSO to ensure that the DMSO concentration was constant across the plate for all assays. Using Multi-drop Combi (Thermo) with standard cassette, 50 μl of Assay Medium was added to each well in the cell-free controls (columns 12 and 24); 50 μl of the cell suspension without hCXCL1 (a CXCR2 ligand) was added to each well in column 18 of the plate (˜10,000 cells per well); and 50 μl of the cell suspension with 80 nM hCXCL1 was added to the rest of wells of the plate (˜10,000 cells per well). The cells were incubated overnight at 37° C./5% CO2. 10 μl of 6× substrate mixture (LiveBLAzer™-FRET B/G substrate (CCF4-AM) Cat # K1096 from Invitrogen, Inc.) was added to each well using Multi-drop Combi (Thermo) with small-tube cassette and the plates incubated at room temperature for 2 h in the dark. The plate was finally read on EnVision using one excitation channel (409 nm) and two emission channels (460 nm and 530 nm).
The blue/green emission ratio (460 nm/530 nm) was calculated for each well, by dividing the background-subtracted Blue emission values by the background-subtracted Green emission values. The dose response curve was based on sigmoidal dose-response model. All ratio data was normalized based upon the maximum emission ratio of positive control (hCXCL1) and minimum emission ratio of negative control (DMSO) on each plate. The intrinsic activity (IA) of each compound would be the normalized percentage of its maximum response after curve fitting.
All exemplified compounds (except for Compounds 203 and 204) were tested in the CXCR2 Tango assay or a similar assay described above. The data mentioned below represents a mean pIC 50 value of multiple test results. It is understood that the data illustrated below may have reasonable variation depending on the specific conditions and procedures used by the person conducting the testing.

`CC1=CCC[C@H]1NC(=O)Nc1ccc(Cl)c(S(=O)(=O)N2CCC(F)(F)C2)c1O` [Compound 88, (R)-1-(4-chloro-3-((3,3-difluoropyrrolidin-1-yl)sulfonyl)-2-hydroxyphenyl)-3-(2-methylcyclopent-2-en-1-yl)urea] was tested, and the IC50 was at most 0.001 µM.
For `O=C(O)C(F)(F)F.[2H]C([2H])([2H])N1CCC(C)(S(=O)(=O)c2c(Cl)ccc(NC(=O)N[C@@H]3CCC=C3C)c2O)CC1` [Compound 139, (R)-1-(4-chloro-2-hydroxy-3-((4-methyl-1-(d3-methyl)piperidin-4-yl)sulfonyl)phenyl)-3-(2-methylcyclopent-2-en-1-yl)urea, trifluoroacetic acid salt], the IC50 was at most 0.01 µM.
`CC1=CCC[C@H]1NC(=O)Nc1ccc(Cl)c(S(=O)(=O)C(C)(C)[C@@H]2CCOC2)c1O` [Compound 55, 1-(4-chloro-2-hydroxy-3-((2-((R)-tetrahydrofuran-3-yl)propan-2-yl)sulfonyl)phenyl)-3-((R)-2-methylcyclopent-2-en-1-yl)urea] showed an IC50 of at most 0.01 µM.
In the case of `CC1=CCCC1NC(=O)Nc1ccc(Cl)c(S(=O)(=O)N2CCCC2)c1O` (stereo not shown) [Compound 116, 1-(4-chloro-2-hydroxy-3-(pyrrolidin-1-ylsulfonyl)phenyl)-3-(2-methylcyclopent-2-en-1-yl)urea], the IC50 is reported as at most 0.01 µM.
Compound `CCN(CC)S(=O)(=O)c1c(Cl)ccc(NC(=O)NC2CCC=C2C)c1O` (stereo not shown) [Compound 121, 6-chloro-N,N-diethyl-2-hydroxy-3-(3-(2-methylcyclopent-2-en-1-yl)ureido)benzene-sulfonamide] has an IC50 of at most 0.01 µM.
`CC1=CCC[C@H]1NC(=O)Nc1ccc(Cl)c(S(=O)(=O)C2CCC[C@@H]2O)c1O` (mixture of isomers) [Compound 51, (±)trans-1-(4-chloro-2-hydroxy-3-((2-hydroxycyclopent-yl)sulfonyl)phenyl)-3-((R)-2-methylcyclopent-2-en-1-yl)urea, trifluoroacetic acid salt] showed an IC50 of at most 0.001 µM.
For `CC1=CCCC1NC(=O)Nc1ccc(Cl)c(S(=O)(=O)[C@H]2CC[C@H](N3CCC3)CC2)c1O` (stereo partly shown) [Compound 97, 1-(3-(((1r,4r)-4-(azetidin-1-yl)cyclohexyl)sulfonyl)-4-chloro-2-hydroxyphenyl)-3-(2-methylcyclopent-2-en-1-yl)urea trifluoroacetic acid salt], the IC50 was at most 0.01 µM.
`CC1=CCCC1NC(=O)Nc1ccc(Cl)c(S(=O)(=O)[C@H]2CCOC2)c1O` (stereo partly drawn) [Compound 99, 1-(4-chloro-2-hydroxy-3-(((S)-tetrahydrofuran-3-yl)sulfonyl)phenyl)-3-(2-methylcyclopent-2-en-1-yl)urea] was tested, and the IC50 was at most 0.01 µM.
`O=C(Nc1ccc(Cl)c(S(=O)(=O)[C@H]2CCOC2)c1O)NC1C=CCC1` (stereo partly drawn) [Compound 175, 1-(4-chloro-2-hydroxy-3-(((S)-tetrahydrofuran-3-yl)sulfonyl)phenyl)-3-(cyclopent-2-en-1-yl)urea] was tested, and the IC50 was at most 0.01 µM.
Work on `CC1=CCC[C@H]1NC(=O)Nc1ccc(Cl)c(S(=O)(=O)C2CCC[C@H](O)C2)c1O` (stereo partly drawn) [Compound 52, 1-(4-chloro-2-hydroxy-3-((trans-3-hydroxycyclohexyl)sulfonyl)phenyl)-3-((R)-2-methylcyclopent-2-en-1-yl)urea] yielded an IC50 of at most 0.001 µM.
`CC1=CCC[C@H]1NC(=O)Nc1ccc(Cl)c(S(=O)(=O)C(F)(F)c2ccccn2)c1O` [Compound 63, (R)-1-(4-chloro-3-((difluoro(pyridin-2-yl)methyl)sulfonyl)-2-hydroxyphenyl)-3-(2-methylcyclopent-2-en-1-yl)urea, trifluoroacetic acid salt] showed an IC50 of at most 0.001 µM.
`CC1=CCC[C@H]1NC(=O)Nc1ccc(Cl)c(S(=O)(=O)N2CC[C@@H](F)C2)c1O` [Compound 87, 1-(4-chloro-3-(((R)-3-fluoropyrrolidin-1-yl)sulfonyl)-2-hydroxyphenyl)-3-((R)-2-methylcyclopent-2-en-1-yl)urea, trifluoroacetic acid salt] gave an IC50 of at most 0.01 µM.
`CC1=CCCC1NC(=O)Nc1ccc(Cl)c(S(=O)(=O)[C@H]2C[C@H](N3CCCC3)C2)c1O` (stereo partly shown) [Compound 96, 1-(4-chloro-2-hydroxy-3-(((1r,3r)-3-(pyrrolidin-1-yl)cyclobutyl)sul-fonyl)phenyl)-3-(2-methylcyclopent-2-en-1-yl)urea, trifluoroacetic acid salt] gave an IC50 of at most 0.01 µM.
For `COCCN1CCN(S(=O)(=O)c2c(Cl)ccc(NC(=O)NC3CCC=C3C)c2O)CC1` (stereo not shown) [Compound 161, 1-(4-chloro-2-hydroxy-3-((4-(2-methoxyethyl)piperazin-1-yl)sulfonyl)phenyl)-3-(2-methylcyclopent-2-en-1-yl)urea], the IC50 was at most 0.01 µM.
`CC1=CCCC1NC(=O)Nc1ccc(Cl)c(S(=O)(=O)C(C)c2ncccn2)c1O` (stereo not shown) [Compound 29, 1-(4-chloro-2-hydroxy-3-((1-(pyrimidin-2-yl)ethyl)sulfonyl)phenyl)-3-(2-methylcyclopent-2-en-1-yl)urea, trifluoroacetic acid salt] was tested, and the IC50 was at most 0.01 µM.
Compound `CC1=CCC[C@H]1NC(=O)Nc1ccc(Cl)c(S(=O)(=O)C2(C)CCN(C3CCC3)CC2)c1O` [Compound 67, (R)-1-(4-chloro-3-((1-cyclobutyl-4-methylpiperidin-4-yl)sulfonyl)-2-hydroxyphenyl)-3-(2-methylcyclopent-2-en-1-yl)urea, trifluoroacetic acid salt] has an IC50 of at most 0.01 µM.
Compound `CC(C)(C(F)(F)F)S(=O)(=O)c1c(Cl)ccc(NC(=O)NC2CCC=C2Cl)c1O` (stereo not shown) [Compound 2, 1-(4-chloro-2-hydroxy-3-((1,1,1-trifluoro-2-methylpropan-2-yl)sulfonyl)phenyl)-3-(2-chlorocyclopent-2-en-1-yl)urea] has an IC50 of at most 0.001 µM.
For `CC1=CCCC1NC(=O)Nc1ccc(Cl)c(S(=O)(=O)N2CCOCC2)c1O` (stereo not shown) [Compound 118, 1-(4-chloro-2-hydroxy-3-(morpholinosulfonyl)phenyl)-3-(2-methylcyclopent-2-en-1-yl)urea], the IC50 was at most 0.01 µM.
`CO[C@H]1C[C@@H](S(=O)(=O)c2c(Cl)ccc(NC(=O)NC3C=CCC3)c2O)C1` (stereo partly drawn) [Compound 147, 1-(4-chloro-2-hydroxy-3-((cis-3-methoxycyclobutyl)sulfonyl)phenyl)-3-(cyclopent-2-en-1-yl)urea] was tested, and the IC50 was at most 0.01 µM.
With `CC1=CCC[C@H]1NC(=O)Nc1ccc(Cl)c(S(=O)(=O)C(C)(C)C(F)(F)F)c1O` [Compound 58, (R)-1-(4-chloro-2-hydroxy-3-((1,1,1-trifluoro-2-methylpropan-2-yl)sulfonyl)phenyl)-3-(2-methylcyclopent-2-en-1-yl)urea] the IC50 was at most 0.001 µM.
`CC(C)(F)S(=O)(=O)c1c(Cl)ccc(NC(=O)NC2CCC=C2Cl)c1O` (stereo not shown) [Compound 15, 1-(4-chloro-3-((2-fluoropropan-2-yl)sulfonyl)-2-hydroxyphenyl)-3-(2-chlorocyclopent-2-en-1-yl)urea] gave an IC50 of at most 0.01 µM.
Work on `CC1=CCCC1NC(=O)Nc1ccc(Cl)c(S(=O)(=O)C2CC3(CCN(C)CC3)C2)c1O` (stereo not shown) [Compound 140, 1-(4-chloro-2-hydroxy-3-((7-methyl-7-azaspiro[3.5]nonan-2-yl)sulfonyl)phenyl)-3-(2-methylcyclopent-2-en-1-yl)urea] yielded an IC50 of at most 0.01 µM.
